# Assay results as given in patent US20230142739A1, “PROTEIN-PROTEIN INTERACTION STABILIZERS” (The Regents of the University of California, priority 2020, published 2023).
# Read-outs that look alike come from different tables or passages of the source. Non-standard residues stand in square brackets, D forms with d. Residues, ends and D or L forms follow the SMILES beside them. *: point of attachment. 5FAM = O=C1OC2(c3ccc(O)cc3Oc3cc(O)ccc32)c2ccc(C(=O)*)cc21; pT = C[C@@H](OP(=O)(O)O)[C@H](N)C(=O)O; pS = N[C@@H](COP(=O)(O)O)C(=O)O
# Legend:
# Format in all cases: binding
# 14-3-3σ(C42) = molecular target: T1, 14-3-3σ(C42) (Homo sapiens, UniProt P31947, C38N/N42C); assay: Fluorescence anisotropy titration of 14-3-3σ(C42) to fluorescein-labeled partner peptides
# T1 construct: with a truncated C-terminus after T231; His6 (N, cleaved yes); made in house; host or cells: E. coli NiCo21 (DE3), pPROEX HTb
# T1 sequence (P31947 1-231 C38N/N42C): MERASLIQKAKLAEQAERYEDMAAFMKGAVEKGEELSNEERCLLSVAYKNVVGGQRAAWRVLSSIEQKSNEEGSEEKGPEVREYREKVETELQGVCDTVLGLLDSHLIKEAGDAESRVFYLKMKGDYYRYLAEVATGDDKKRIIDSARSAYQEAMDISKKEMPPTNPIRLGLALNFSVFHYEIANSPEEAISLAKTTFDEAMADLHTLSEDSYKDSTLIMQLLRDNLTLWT
# Procedure: The 14-3-3/ER stabilizer FC (Fusicoccin) inhibits estradiol dependent signaling. FC (a natural product) inhibits dimerization of E2/ER and tamoxifen/ER. FC also blocks DNA binding and transcription (482) (PNAS May 28, 2013 110 (22) 8894-8899). Disulfide trapping for stabilizers of 14-3-3σ/ERα-pp (15-mer phosphopeptide representing the 14-3-3σ binding motif of ERα), was measured (J. Am. Chem. Soc. 2019, 141, 8, 3524-3531, FIG. 1b). Different cysteine residues yield different 14-3-3/client stabilizing chemical moieties. At each tethering residue, bound chemical moieties can be competitive with peptide, noncompetitive, or cooperative (J. Am. Chem. Soc. 2019, 141, 8, 3524-3531, FIG. 1c). […] 14-3-3σ (C42) expected mass: 26509 Da, βME capped mass: 26585 Da, protein-disulfide conjugate mass: 26795 Da. LC/MS dose response curves showing percentage of protein conjugate formation for titrations of disulfides to 14-3-3σ (C42) apo and bound to ERα-pp, were measured. […] LC/MS dose response curves showing percentage of protein conjugate formation for titrations of disulfides to 14-3-3σ (C42) apo and bound to ERα-pp, were measured. […] Dose-response curve of Fragment 1, which induces ERα binding, were measured (J. Am. Chem. Soc. 2019, 141, 8, 3524-3531, FIG. 2a-2b, supporting information). Small molecules stabilize 14-3-3σ/Erα-pp binding. […] Schematic of experimental design and Plot of anisotropy (mean+SD) for titrations of Frag001, Frag002, FC-A (natural product fusicoccane-A), or DMSO control to fluorescein-Erα-pp and 1 μM 14-3-3σ (C42) (J. Am. Chem. Soc. 2019, 141, 8, 3524-3531, FIG. 3a-3b). Dose-response curves were obtained by MS by analyzing % tethering for titrations of Fragment 2 to 14-3-3σ apo (− peptide;) or bound to different interaction partner-derived peptide motifs; ERα-pp ( ), TASK3-pp ( ), ExoS ( ) or TAZ-pp ( ), starting from 1 mM (J. Am. Chem. Soc. 2019, 141, 8, 3524-3531, FIG. 4b). LC/MS screening data of hits for 14-3-3σ (C42)+/−ERα-pp was collected. The deconvoluted LC/MS spectra of disulfide fragments bound to 14-3-3σ (C42) alone or in complex with ERα-pp were determined with 14-3-3σ (C42) expected mass: 26509 Da, βME capped mass: 26585 Da, protein-disulfide conjugate mass: between 26752-26919 Da. Fragments bound preferentially in the presence of ERα-pp: 959996 (1), 916971, and 917137 were termed ‘cooperative’. […] Fluorescence anisotropy (r) of fluorescein-ERα-pp versus concentration of 6 or FC-A binding to 14-3-3σ(C42) or 14-3-3σ(C45) was tested. […]
# Fluorescence Anisotropy. […] Fluorescence anisotropy measurements were performed directly and after overnight incubation at room-temperature, using a Tecan Infinite F500 plate reader (filter set λex: 485±20 nm, λem: 535±25 nm). […]
# [1] = molecular target: T2, 14-3-3σ(C42)/ERα-pp complex (Homo sapiens, UniProt P31947, C38N/N42C); assay: Disulfide tethering primary screen, intact protein LC/MS, protein-peptide complex
# T2 construct: with a truncated C-terminus after T231; His6 (N, cleaved yes); made in house; host or cells: E. coli NiCo21 (DE3), pPROEX HTb
# Procedure: Apo-14-3-3σ or the 14-3-3σ/ERα-pp complex was screened against a 1600-member disulfide library under mildly reducing conditions (100 μM betamercaptoethanol; βME). Conjugate formation for each individual reaction was analyzed by intact protein MS. Three peaks observed in mass spectra corresponded to apo, βME-capped, and fragment-conjugated 14-3-3σ. The ‘percent tethering’, defined as the intensity of the fragment-specific conjugate protein peak divided by the sum of the intensities for all protein peaks, was calculated for each individual experiment using an automated pipeline. (492)
# Disulfide Tethering screening and data processing. The primary screening was performed by incubating the target with individual compounds in a 384-well plate format. A custom library of 1600 disulfide-containing fragments of the UCSF Small Molecule Discovery Center (SMDC), synthesized as previously reported, was available as 50 mM stock solutions in DMSO. (496, 497) For screening, 14-3-3σ wild-type and Cys-mutants were diluted to 100 nM in buffer (10 mM Tris, 100 μM betamercaptoethanol (βME), pH 8.0) and plated in 384-well plates (15 μL/well). 30 nL of each fragment was pinned from the library master plates into the protein samples using a Biomek FX (Beckman) to give a final concentration of 100 μM. The duplicate experiments additionally contained 200 nM ERα-pp. The reaction mixtures were incubated for 3 hours at RT before being subjected to LC/MS (I-class Acquity UPLC/Xevo G2-XS Quadrupole Time of Flight mass spectrometer, Waters). Data collection and automated processing followed a custom workflow, as previously described. (492) All compounds described in the text were from the same lot as the original screening material.
# Pin1_72/14-3-3 complex = molecular target: T3, Pin1_72/14-3-3 complex (Homo sapiens, UniProt P61981); assay: Fluorescence anisotropy compound titration, Pin1_72/14-3-3 (CC50)
# T3 construct: the full length 14-3-3γ was dialysis against 25 mM HEPES pH 7.5; made in house; host or cells: E. coli BL21(DE3), pPROEX HTb
# T3 sequence (P61981 1-247): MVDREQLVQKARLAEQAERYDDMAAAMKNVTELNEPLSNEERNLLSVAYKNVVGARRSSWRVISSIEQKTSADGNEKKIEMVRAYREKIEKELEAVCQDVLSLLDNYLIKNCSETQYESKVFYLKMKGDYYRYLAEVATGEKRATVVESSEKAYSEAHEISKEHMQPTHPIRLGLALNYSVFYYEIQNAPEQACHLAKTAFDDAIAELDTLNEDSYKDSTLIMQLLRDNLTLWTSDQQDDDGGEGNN
# Procedure: Site-Directed Shift base fragment Screening. […] As measure of activity the inflection point of the curve was determined, representing the half-maximum complex formation (CC50).
# (§1) Fluorescence Anisotropy (FA) Assays.
# Pin1_72/14-3-3γ = molecular target: T4, Pin1_72/14-3-3γ (Homo sapiens, UniProt P61981+Q13526); assay: Fluorescence anisotropy protein titration, Pin1_72/14-3-3γ at constant compound; details: based on internal DMSO control and 100 μM fragment
# T4 construct: the full length 14-3-3γ was dialysis against 25 mM HEPES pH 7.5; made in house; host or cells: E. coli BL21(DE3), pPROEX HTb
# Text: Inspired by the binding poses of 3 and 9 we combined their structural features to improve stabilization. […] In case of complex stabilization, a left shift of apparent KD values is expected, here described as stabilization factors (SF).
# as §1
# 14-3-3/Pin1_72 complex = molecular target: T5, 14-3-3/Pin1_72 complex (Homo sapiens, UniProt P61981); assay: Cooperativity analysis, 14-3-3 titrations at varied constant fragment concentration
# T5 construct: the full length 14-3-3γ was dialysis against 25 mM HEPES pH 7.5; made in house; host or cells: E. coli BL21(DE3), pPROEX HTb
# Text: Cooperativity in ternary complex formation. In contrast to PPI inhibition, where affinity to one of the protein pockets is the driving force for drug development, design of molecular glues is driven by cooperative ternary complex formation. Both CC50 and SF values are concentration dependent values and might differ based on assay design. […] Cooperative complex formation is often accompanied by structural changes of the interface of a complex which translates to increased stability of the ternary com-plex. In order to assess cooperativity of the ternary complex, fragments 13, 23, 27 and 28 were selected for cooper-activity analysis. The α-factor of the fragments were determined using 14-3-3 titrations in the presence of varied, but constant concentration of fragment in a dose-dependent manner. […] Further, the interval of change in stabilization further describes the systems cooperative behaviour.
# However, at higher concentration regimes significant assay interference was observed, probably due to compound aggregation. Fragments 23, 27 and 28 all reached saturation or approached saturation enabling accurate determination of α-factor. […] KD remains constant also at higher concentrations of FC-A, indicating non-specific effects.
compound,measurement,setting,value
"CC(C)[C@H](NC(=O)[C@H](COP(=O)(O)O)NC(=O)[C@H](CCCCN)NC(=O)[C@H](CCCNC(=N)N)NC(=O)[C@H](CCCNC(=N)N)NC(=O)c1ccc2c(c1)C(=O)OC21c2ccc(O)cc2Oc2cc(O)ccc21)C(=O)O [TASK3-pp, KRRKpS^373V-OH] (5FAM-RRK[pS]V-OH)",EC50,14-3-3σ(C42); fluorescein-labeled peptide,200 nM
NCCSSCCCC(=O)NCC(c1ccccc1)c1ccccc1 [compound 916971],hit category (binding in presence vs absence of ERα-pp),[1],cooperative
CC[C@H](C)[C@H](NC(=O)[C@H](Cc1ccc(O)cc1)NC(=O)[C@H](Cc1ccc(O)cc1)NC(=O)[C@H](CCCCN)NC(C)=O)C(=O)N[C@H](C(=O)NCC(=O)N[C@@H](CCC(=O)O)C(=O)N[C@@H](C)C(=O)N[C@@H](CCC(=O)O)C(=O)NCC(=O)N[C@@H](Cc1ccccc1)C(=O)N1CCC[C@H]1C(=O)N[C@@H](C)C(=O)N[C@H](C(=O)N[C@H](C(=O)O)C(C)C)[C@@H](C)OP(=O)(O)O)[C@@H](C)O [ERα-pp] (Ac-KYYITGEAEGFPA[pT]V-OH),EC50,14-3-3σ(C42),300 nM
O=Cc1ccc(-n2ccnc2)c(Cl)c1 [L2],activity in FA assay,Pin1_72/14-3-3 complex,significant complex formation
same,SF (fold stabilization),Pin1_72/14-3-3γ,0.8
CN(C)CCSSCCNC(=O)C1CCN(C(=O)c2ccccc2NC(=O)c2ccccc2)CC1 [compound 917805],hit category (binding in presence vs absence of ERα-pp),[1],neutral
CN(C)CCSSCCn1cc(CN2C(=O)C(=O)c3ccccc32)nn1 [compound 957838],hit category (binding in presence vs absence of ERα-pp),[1],neutral
"CC(C)C[C@H](NC(=O)[C@H](CCC(N)=O)NC(=O)[C@H](CC(C)C)NC(=O)[C@H](CO)NC(=O)[C@H](C)NC(=O)[C@@H]1CCCN1C(=O)[C@H](CO)NC(=O)[C@H](COP(=O)(O)O)NC(=O)[C@H](Cc1c[nH]cn1)NC(=O)[C@H](CO)NC(=O)[C@H](CCCNC(=N)N)NC(=O)c1ccc2c(c1)C(=O)OC21c2ccc(O)cc2Oc2cc(O)ccc21)C(=O)NCC(=O)N[C@H](C(N)=O)[C@@H](C)O [TAZ-pp, RSHpS^89SPASLQ] (5FAM-RSH[pS]SPASLQLGT-NH2)",EC50,14-3-3σ(C42); fluorescein-labeled peptide,2200 nM
"O=Cc1ccc(-n2ccnc2-c2cccnc2)cc1Br [compound 26, 2-bromo-4-(2-(pyridin-3-yl)-1H-imidazol-1-yl)benzaldehyde]",activity in FA assay,Pin1_72/14-3-3 complex,limited effect
same,SF (fold stabilization),Pin1_72/14-3-3γ,2.27
CC(C)C[C@H](NC(=O)CNC(=O)[C@H](CCC(N)=O)NC(=O)CNC(=O)[C@H](Cc1c[nH]cn1)NC(=O)CNC(=O)[C@H](CO)NC(=O)c1ccc2c(c1)C(=O)OC21c2ccc(O)cc2Oc2cc(O)ccc21)C(=O)N[C@@H](CC(C)C)C(=O)N[C@@H](CC(=O)O)C(=O)N[C@@H](C)C(=O)N[C@@H](CC(C)C)C(=O)N[C@@H](CC(=O)O)C(=O)N[C@@H](CC(C)C)C(=O)N[C@@H](C)C(=O)N[C@@H](CO)C(N)=O [ExoS],EC50,14-3-3σ(C42),11100 nM
"O=Cc1ccc(-n2ccnc2-c2ccccc2Br)cc1Br [compound 23, 2-bromo-4-(2-(2-bromophenyl)-1H-imidazol-1-yl)benzaldehyde]",cooperativity factor (α-factor),14-3-3/Pin1_72 complex,approximately 60
same,SF (fold stabilization),Pin1_72/14-3-3γ,18.9
"O=Cc1ccc(-n2ccnc2-c2ccc(O)cc2)cc1Br [compound 25, 2-bromo-4-(2-(4-hydroxyphenyl)-1H-imidazol-1-yl)benzaldehyde]",activity in FA assay,Pin1_72/14-3-3 complex,limited effect
CN(C)CCSSCCNC(=O)c1ccccc1Sc1ccccc1C#N [compound 917137],hit category (binding in presence vs absence of ERα-pp),[1],cooperative
